Reference: patent US7488598B2, “Mutant purine nucleoside phosphorylase proteins and cellular delivery thereof” (priority 2001, dated 2009)

What was measured:
[1] = target: E. coli PNP mutant M65V (Escherichia coli, UniProt P0ABP8, M65V); conditions: for activity of mutant M65V PNP compared with wild-type PNP (in words): Example 16 analysis; for M65V, crude extract, rate of cleavage / M65V, pure enzyme, rate of cleavage: Table III, 100 μM substrate, HPLC, average of separate experiments
[2] = target: wild-type E. coli PNP (Escherichia coli, UniProt P0ABP8); conditions: Table III; 100 μM substrate; HPLC; average of separate experiments
Sequence of wild-type E. coli PNP (P0ABP8 whole entry): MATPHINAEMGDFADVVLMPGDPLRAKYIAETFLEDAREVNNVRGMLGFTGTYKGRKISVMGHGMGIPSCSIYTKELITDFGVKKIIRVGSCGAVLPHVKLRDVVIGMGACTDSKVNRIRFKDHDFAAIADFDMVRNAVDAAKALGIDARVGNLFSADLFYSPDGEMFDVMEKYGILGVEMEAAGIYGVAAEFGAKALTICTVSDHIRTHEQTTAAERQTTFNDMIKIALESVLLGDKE

Sequence of E. coli PNP mutant M65V (P0ABP8 whole entry M65V): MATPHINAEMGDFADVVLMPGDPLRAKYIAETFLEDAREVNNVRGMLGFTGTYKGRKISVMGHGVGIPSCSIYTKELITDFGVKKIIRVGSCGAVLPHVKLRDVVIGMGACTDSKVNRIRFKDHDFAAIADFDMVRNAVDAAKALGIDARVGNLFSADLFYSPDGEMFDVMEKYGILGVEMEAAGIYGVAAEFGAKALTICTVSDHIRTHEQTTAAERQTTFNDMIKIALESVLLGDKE

| Compound | activity of mutant M65V PNP compared with wild-type PNP (in words) [1] | M65V, crude extract, rate of cleavage [1] | Wild type, pure enzyme, rate of cleavage [2] | M65V, pure enzyme, rate of cleavage [1] | Activity of M65V mutant greater than wild-type PNP ([1]; M65V versus wild-type PNP) |
| --- | --- | --- | --- | --- | --- |
| C[C@H](O)[C@H]1O[C@@H](n2cnc3c(N)nc(F)nc32)[C@H](O)[C@@H]1O [2-Fluoro-9-(6-deoxy-α-L-talofuranosyl)-9H-purin-6-amine] | more activity | 1,110,000 nmole/mg/hr | 26,000 nmole/mg/hr | – | – |
| C[C@@H](O)[C@H]1O[C@@H](n2cnc3c(N)nc(F)nc32)[C@H](O)[C@@H]1O [2-Fluoro-9-(6-deoxy-β-D-allofuranosyl)-9H-purin-6-amine] | – | 93,000 nmole/mg/hr | 2,600 nmole/mg/hr | – | – |
| CO[C@@H]1[C@H](O)[C@@H](CO)O[C@H]1n1cnc2c(N)ncnc21 [2′-O-methyl-adenosine] | – | — (No detectable activity at 100 μg/ml (limit of detection approximately 1 nmole/mg/hr)) | — (No detectable activity at 100 μg/ml (limit of detection approximately 1 nmole/mg/hr)) | – | – |
| Nc1ncnc2c1ncn2[C@@H]1O[C@H](CO)C[C@H]1O [3′-deoxyadenosine] | – | — (No detectable activity at 100 μg/ml (limit of detection approximately 1 nmole/mg/hr)) | — (No detectable activity at 100 μg/ml (limit of detection approximately 1 nmole/mg/hr)) | – | – |
| CSC[C@H]1O[C@@H](n2cnc3c(N)ncnc32)[C@H](O)[C@@H]1O [5′-deoxy-5′-methylthio-adenosine] | – | – | — (No detectable activity at 100 μg/ml (limit of detection approximately 1 nmole/mg/hr)) | 690 nmol/mg/h | – |
| Cc1ncnc2c1ncn2[C@@H]1O[C@H]([C@@H](C)O)[C@@H](O)[C@H]1O [5′methyl(allo)-MeP-R, 9-(6-deoxy-β-D-allofuranosyl)-6-methylpurine] | – | 316 nmol/mg/h | 47 nmol/mg/h | – | – |
| Cc1ncnc2c1ncn2[C@@H]1O[C@@H](CI)[C@@H](O)[C@H]1O [6-Methyl-9-(5-deoxy-5-iodo-α-L-lyxofuranosyl)purine] | – | 4 nmol/mg/h | — (No detectable activity at 100 μg/ml (limit of detection approximately 1 nmole/mg/hr)) | – | – |
| Cc1ncnc2c1ncn2[C@@H]1O[C@H](CI)[C@@H](O)[C@H]1O [6-Methyl-9-(5-deoxy-5-iodo-β-D-ribofuranosyl)purine] | – | – | — (No detectable activity at 100 μg/ml (limit of detection approximately 1 nmole/mg/hr)) | — (No detectable activity at 100 μg/ml (limit of detection approximately 1 nmole/mg/hr)) | – |
| Cc1ncnc2c1ncn2[C@@H]1O[C@@H](C)[C@@H](O)[C@H]1O [6-Methyl-9-(5-deoxy-α-L-lyxofuranosyl)purine] | – | 3,500 nmole/mg/hr | 20 nmol/mg/h | – | – |
| Cc1ncnc2c1ncn2[C@@H]1O[C@H](C)[C@@H](O)[C@H]1O [6-Methyl-9-(5-deoxy-β-D-ribofuranosyl)purine] | – | 1800 nmol/mg/h | 406 nmol/mg/h | – | – |
| Cc1ncnc2ncn([C@H]3C[C@H](O)[C@@H](CO)O3)c12 [7-(2-deoxy-β-D-ribofuranosyl)-6-methylpurine] | – | — (No detectable activity at 100 μg/ml (limit of detection approximately 1 nmole/mg/hr)) | — (No detectable activity at 100 μg/ml (limit of detection approximately 1 nmole/mg/hr)) | – | – |
| Cc1ncnc2ncn([C@@H]3O[C@@H](CO)[C@@H](O)[C@H]3O)c12 [7-(α-L-lyxofuranosyl)-6-methylpurine] | – | – | — (No detectable activity at 100 μg/ml (limit of detection approximately 1 nmole/mg/hr)) | — (No detectable activity at 100 μg/ml (limit of detection approximately 1 nmole/mg/hr)) | – |
| Nc1nc2c(ncn2[C@@H]2C[C@H](CO)[C@@H](CO)O2)c(=S)[nH]1 [9-(2,3-dideoxy-3-hydroxymethyl-α-D-ribofuranosyl)-6-thioguanine] | – | — (No detectable activity at 100 μg/ml (limit of detection approximately 1 nmole/mg/hr)) | 242 nmol/mg/h | – | – |
| Cc1ncnc2c1ncn2[C@@H]1C[C@H](O)[C@@H](CO)O1 [9-(2-deoxy-α-D-ribofuranosyl)-6-methylpurine] | – | — (No detectable activity at 100 μg/ml (limit of detection approximately 1 nmole/mg/hr)) | — (No detectable activity at 100 μg/ml (limit of detection approximately 1 nmole/mg/hr)) | – | – |
| Nc1nc(Cl)nc2c1ncn2[C@H]1C[C@@H](O)[C@H](CO)O1 [9-(2-deoxy-α-L-ribofuranosyl)-2-chloroadenine] | – | — (No detectable activity at 100 μg/ml (limit of detection approximately 1 nmole/mg/hr)) | — (No detectable activity at 100 μg/ml (limit of detection approximately 1 nmole/mg/hr)) | – | – |
| Nc1nc(Cl)nc2c1ncn2[C@@H]1C[C@@H](O)[C@H](CO)O1 [9-(2-deoxy-β-L-ribofuranosyl)-2-chloroadenine] | – | — (No detectable activity at 100 μg/ml (limit of detection approximately 1 nmole/mg/hr)) | — (No detectable activity at 100 μg/ml (limit of detection approximately 1 nmole/mg/hr)) | – | – |

| Compound | activity of mutant M65V PNP compared with wild-type PNP (in words) [1] | M65V, crude extract, rate of cleavage [1] | Wild type, pure enzyme, rate of cleavage [2] | M65V, pure enzyme, rate of cleavage [1] | Activity of M65V mutant greater than wild-type PNP ([1]; M65V versus wild-type PNP) |
| --- | --- | --- | --- | --- | --- |
| Cc1ncnc2c1ncn2[C@@H]1O[C@H](C(C)(C)O)[C@@H](O)[C@H]1O [9-(5,5-di-C-methyl-β-D-ribofuranosyl)-6-methylpurine] | – | – | — (No detectable activity at 100 μg/ml (limit of detection approximately 1 nmole/mg/hr)) | 230 nmol/mg/h | – |
| Nc1nc(F)nc2c1ncn2[C@@H]1O[C@H](CI)[C@@H](O)[C@H]1O [9-(5-deoxy-5-iodo-β-D-ribofuranosyl)-2-fluoroadenine] | – | – | 13 nmol/mg/h | 490 nmol/mg/h | – |
| CSC[C@H]1O[C@@H](n2cnc3c(N)nc(F)nc32)[C@H](O)[C@@H]1O [9-(5-deoxy-5-methylthio-β-D-ribofuranosyl)-2-fluoroadenine] | – | – | 13 nmol/mg/h | 2500 nmol/mg/h | – |
| Cc1ncnc2c1ncn2[C@@H]1O[C@H](CSc2ccccc2)[C@@H](O)[C@H]1O [9-(5-deoxy-5-phenylthio-β-D-ribofuranosyl)-6-methylpurine] | – | — (No detectable activity at 100 μg/ml (limit of detection approximately 1 nmole/mg/hr)) | — (No detectable activity at 100 μg/ml (limit of detection approximately 1 nmole/mg/hr)) | – | – |
| C#C[C@@H](O)[C@H]1O[C@@H](n2cnc3c(C)ncnc32)[C@H](O)[C@@H]1O [9-(6,7-dideoxy-α-L-talo/β-D-allo-hept-6-ynofuranosyl)-6-methylpurine] | – | 119 nmol/mg/h | — (No detectable activity at 100 μg/ml (limit of detection approximately 1 nmole/mg/hr)) | – | – |
| Nc1ncnc2c1ncn2[C@H]1O[C@H](CO)[C@@H](O)[C@@H]1O [9-(α-D-arabinofuranosyl)-adenine] | – | — (No detectable activity at 100 μg/ml (limit of detection approximately 1 nmole/mg/hr)) | — (No detectable activity at 100 μg/ml (limit of detection approximately 1 nmole/mg/hr)) | – | – |
| Nc1nc(F)nc2c1ncn2[C@@H]1O[C@@H](CO)[C@@H](O)[C@H]1O [9-(α-L-lyxofuranosyl)-2-fluoroadenine, 2-Fluoro-9-(α-L-lyxofuranosyl)-9H-purin-6-amine] | – | 222,000 nmole/mg/hr | 7,800 nmole/mg/hr | – | – |
| Cc1ncnc2c1ncn2[C@@H]1O[C@@H](CO)[C@@H](O)[C@H]1O [9-(α-L-lyxofuranosyl)-6-methylpurine, 6-Methyl-9-α-L-lyxofuranosylpurine] | more activity | – | 218 nmol/mg/h | 9,600 nmole/mg/hr | – |
| Nc1ncnc2c1ncn2[C@@H]1O[C@@H](CO)[C@@H](O)[C@H]1O [9-(α-L-lyxofuranosyl)-adenine] | more activity | 54,000 nmole/mg/hr | 3,690 nmole/mg/hr | – | 6 fold |
| Nc1ncnc2c1ncn2[C@@H]1O[C@H](CO)[C@@H](O)[C@@H](O)[C@H]1O [9-(β-D-allopyranosyl)-adenine] | – | — (No detectable activity at 100 μg/ml (limit of detection approximately 1 nmole/mg/hr)) | — (No detectable activity at 100 μg/ml (limit of detection approximately 1 nmole/mg/hr)) | – | – |
| Cc1ncnc2c1ncn2[C@@H]1O[C@H](CO)[C@@H](O)[C@@H]1O [9-(β-D-arabinofuranosyl)-6-methylpurine] | – | 3 nmol/mg/h | 14 nmol/mg/h | – | – |
| Nc1ncnc2c1ncn2[C@]1(CO)OC[C@@H](O)[C@@H](O)[C@@H]1O [9-(β-D-fructopyranosyl)-adenine] | – | — (No detectable activity at 100 μg/ml (limit of detection approximately 1 nmole/mg/hr)) | — (No detectable activity at 100 μg/ml (limit of detection approximately 1 nmole/mg/hr)) | – | – |
| Nc1ncnc2c1ncn2[C@@H]1O[C@H](CO)[C@H](O)[C@@H]1O [9-(β-D-lyxofuranosyl)-adenine] | – | — (No detectable activity at 100 μg/ml (limit of detection approximately 1 nmole/mg/hr)) | — (No detectable activity at 100 μg/ml (limit of detection approximately 1 nmole/mg/hr)) | – | – |
| OC[C@H]1O[C@@H](n2cnc3c(CF)ncnc32)[C@H](O)[C@@H]1O [9-(β-D-ribofuranosyl)-6-fluoromethylpurine] | – | – | 56,000 nmole/mg/hr | 211,000 nmole/mg/hr | – |
| Nc1nc2c(ncn2[C@@H]2O[C@H](CO)[C@@H](O)[C@H]2O)c(=O)[nH]1 [guanosine] | – | – | – | 778,000 nmole/mg/hr | – |
